Measurements taken from patent US11623931B2, “Bicyclic compounds for diagnosis and therapy” (AC IMMUNE SA, priority 2016, dated 2023).

Tests used:
Design in all cases: key: − (No); +/− (very weak); + (weak); ++ (good); +++ (strong)
[1] = test system: Aβ plaques on PD sections with mixed pathology; test: Assay 1 (fluorescence based assay): direct staining of PD brain sections with mixed pathology; format: binding, human; conditions: staining intensity; compound 100 μM, frozen amygdala sections, PD Braak stage V-VI with aSyn aggregates and Aβ plaques
Experimental: (§1) Direct Staining of Compounds of this Invention to Human Parkinson's Disease Brain Sections
(§2) 20 μm frozen sections from amygdala were purchased from an external provider (Tissue Solutions Ltd.). Donors were diagnosed with PD, Braak stage V-VI (Braak et al., Neurobiol. Aging, 2003, 24, 197-211) and thus with confirmed aSyn pathology. PD donors, Braak stage V-VI with mixed pathology, containing aSyn aggregates as well as Aβ plaques, were also used in this assay. Sections were kept at −80° C. until start of the experiment.
(§3) Brain sections were encircled with pap pen liquid blocker to reduce the volume of solution for the different incubations. Sections were fixed for 15 min at 4° C. with 4% paraformaldehyde and washed three times for 5 minutes with PBS (phosphate buffered saline) at room temperature. Test compounds were incubated on the sections at 100 μM in 50% ethanol in water for 30 min at room temperature, followed by three washes of 5 minutes with PBS. Sections were then saturated and permeabilized in blocking buffer (PBS, 10% NGS, 0.25% Triton) for 1 hour at room temperature and then incubated for 2 hours at room temperature with the primary antibodies against aSyn: aSyn-211 (SantaCruz Biotechnology sc-12767) or aSyn-pS129 (Abcam AB51253), and primary antibody against AR, 4G8, (Covance, SIG-39220). All primary antibodies diluted 1/250 in PBS, 5% NGS, 0.25% Triton. After three washes in PBS, the sections were incubated for 30 minutes at room temperature with a secondary anti-mouse antibody labeled with AlexaFluor555 (Invitrogen A21422) or anti-rabbit antibody labeled with AlexaFluor555 (Invitrogen A21428) and further washed three times in PBS. To reduce auto-fluorescence of the tissue, the sections were incubated in a solution of 0.1% Sudan Black (Sigma 199664) in 70% ethanol for 15 min at room temperature, followed by four washes with PBS and mounted under cover slips using ProLong Gold Antifade reagent (Invitrogen P36930).
(§4) Sections were analyzed on the Nikon Eclipse Ti microscope to detect staining and imaged using Nikon DS-Fi2 camera and NIS-Element AR4.13.1 software.

[2] = target: T1, aSyn aggregates on PD sections (Homo sapiens, UniProt P37840); test: Assay 1 (fluorescence based assay): direct staining of human Parkinson's disease brain sections; format: binding; conditions: staining intensity; compound 100 μM, frozen amygdala sections, PD Braak stage V-VI
T1 construct: 20 μm frozen sections from amygdala were purchased from an external provider (Tissue Solutions Ltd.); tissue Tissue Solutions Ltd; host or cells: human PD amygdala, frozen sections, Braak stage V-VI
From the text: Assay 1 (Fluorescence Based Assay):
as §1, §2, §3, §4

[3] = test system: Aβ plaques on AD sections; test: Assay 1 (fluorescence based assay): direct staining of human Alzheimer's disease brain sections; format: binding; conditions: staining intensity; compound 100 μM, frozen amygdala sections, AD Braak stage V-VI
Experimental: Direct Staining of Compounds of this Invention to Human Alzheimer's Disease Brain Sections 20 μm frozen sections from amygdala were purchased from an external provider (Tissue Solutions Ltd.). Donors were diagnosed with AD, Braak stage V-VI (Braak et al., Neurobiol. Aging, 1995, 16, 271-284) and thus with confirmed Aβ pathology. Sections were kept at −80° C. until start of the experiment. Brain sections were encircled with pap pen liquid blocker to reduce the volume of solution for the different incubations. Sections were fixed for 15 min at 4° C. with 4% paraformaldehyde and washed three times for 5 minutes with PBS at room temperature. Test compounds were incubated on the sections at 100 μM in 50% ethanol in water for 30 min at room temperature, followed by three washes of 5 minutes with PBS. Sections were then saturated and permeabilized in blocking buffer (PBS, 10% NGS, 0.25% Triton) for 1 hour at room temperature and then incubated for 2 hours at room temperature with the primary antibodies against AR, 4G8, (Covance, SIG-39220), diluted 1/250 in PBS, 5% NGS, and 0.25% Triton. After three washes in PBS, the sections were incubated for 30 minutes at room temperature with a secondary anti-mouse antibody labeled with AlexaFluor555 (Invitrogen A21422) and further washed three times in PBS. To reduce auto-fluorescence of the tissue, the sections were incubated in a solution of 0.1% Sudan Black (Sigma 199664) in 70% ethanol for 15 min at room temperature, followed by four washes with PBS and mounted under cover slips using ProLong Gold Antifade reagent (Invitrogen P36930). Sections were analyzed on the Nikon Eclipse Ti microscope to detect staining and imaged using Nikon DS-Fi2 camera and NIS-Element AR4.13.1 software.

F[C@@H]1CCCN(c2ccc(-c3nc4ncc(N5CCOCC5)cc4s3)cn2)C1 [Example 123]
Staining of Aβ plaques on PD sections with mixed pathology [1]: + | Staining of aSyn aggregates on PD sections [2]: +

F[C@H]1CCCN(c2ccc(-c3nc4ncc(-c5cccnc5)cc4s3)cn2)C1 [Example 101]
Staining of Aβ plaques on PD sections with mixed pathology [1]: + | Staining of aSyn aggregates on PD sections [2]: ++

O=C1CN(CCF)CCN1c1ccc2nc(-c3ccc(N4CCCC4)nc3)sc2c1 [Example 128]
Staining of Aβ plaques on PD sections with mixed pathology [1]: ++ | Staining of aSyn aggregates on PD sections [2]: ++

O=C1COCCN1c1ccc2nc(-c3cnn(CCF)c3)sc2c1 [Example 125]
Staining of Aβ plaques on PD sections with mixed pathology [1]: + | Staining of aSyn aggregates on PD sections [2]: +

CNc1ccc(-c2cc3ccc(-c4ccc(N5CC[C@@H](F)C5)nc4)nc3s2)cc1F [Example 111]
Staining of Aβ plaques on PD sections with mixed pathology [1]: +++ | Staining of aSyn aggregates on PD sections [2]: +++

F[C@H]1CCCN(c2ccc(-c3nc4nc(-n5ccnc5)ccc4s3)cn2)C1 [Example 132]
Staining of Aβ plaques on PD sections with mixed pathology [1]: +/− | Staining of aSyn aggregates on PD sections [2]: ++

CNc1ccc(-c2ccc3cc(-c4ccccc4OC)sc3n2)cn1 [Example 7]
Staining of aSyn aggregates on PD sections [2]: ++ | Staining of Aβ plaques on AD sections [3]: +++

CN1CCN(c2ccc3nc(-c4ccc(N5CC[C@H](F)C5)nc4)sc3c2)C(=O)C1 [Example 71]
Staining of aSyn aggregates on PD sections [2]: + | Staining of Aβ plaques on AD sections [3]: −

F[C@@H]1CCN(c2ccc(-c3ccc4sc(-c5cccnc5)cc4n3)cn2)C1 [Example 44]
Staining of aSyn aggregates on PD sections [2]: + | Staining of Aβ plaques on AD sections [3]: −

CN(C)c1ccc(-c2ccc3cc(-c4ccc(N(C)C)nc4)sc3n2)cn1 [Example 37]
Staining of aSyn aggregates on PD sections [2]: ++ | Staining of Aβ plaques on AD sections [3]: +

O=C1c2sc(-c3ccc(N4CCCC4)nc3)nc2CCN1CCF [Example 78]
Staining of aSyn aggregates on PD sections [2]: + | Staining of Aβ plaques on AD sections [3]: +

c1cncc(-c2cnc3sc(-c4ccc(N5CCCC5)nc4)nc3c2)c1 [Example 23]
Staining of aSyn aggregates on PD sections [2]: ++ | Staining of Aβ plaques on AD sections [3]: +

Fc1ccncc1-c1ccc2sc(-c3ccc(N4CCCC4)nc3)nc2c1 [Example 40]
Staining of aSyn aggregates on PD sections [2]: +++ | Staining of Aβ plaques on AD sections [3]: +

c1cncc(-c2cc3nc(-c4ccc(N5CCCC5)nc4)sc3cn2)c1 [Example 24]
Staining of aSyn aggregates on PD sections [2]: ++ | Staining of Aβ plaques on AD sections [3]: +

CNc1ccc(-c2ccc3cc(-c4cccc(OC)c4)sc3n2)cc1 [Example 9]
Staining of aSyn aggregates on PD sections [2]: ++ | Staining of Aβ plaques on AD sections [3]: ++

FC1CCN(c2ccc(-c3ccc4cc(-c5cccnc5)sc4n3)cn2)CC1 [Example 48]
Staining of aSyn aggregates on PD sections [2]: ++ | Staining of Aβ plaques on AD sections [3]: +

CNc1ccc(-c2ccc3cc(-c4cccnc4)sc3n2)cn1 [Example 47]
Staining of aSyn aggregates on PD sections [2]: +++ | Staining of Aβ plaques on AD sections [3]: +++

CNc1ccc(-c2ccc3cc(-c4cccnc4)sc3n2)cc1 [Example 14]
Staining of aSyn aggregates on PD sections [2]: ++ | Staining of Aβ plaques on AD sections [3]: +++

O=C1COCCN1c1ccc2nc(-c3ccc(N4CC[C@@H](F)C4)nc3)sc2c1 [Example 72]
Staining of aSyn aggregates on PD sections [2]: +++ | Staining of Aβ plaques on AD sections [3]: +

CNc1ccc(-c2cc3ccc(Nc4ccc(OCCF)cc4)nc3s2)cc1 [Example 74]
Staining of aSyn aggregates on PD sections [2]: + | Staining of Aβ plaques on AD sections [3]: +++

Cn1cc(-c2ccc3sc(-c4ccc(N5CCCC5)nc4F)nc3c2)cn1 [Example 42]
Staining of aSyn aggregates on PD sections [2]: + | Staining of Aβ plaques on AD sections [3]: +

FCCOc1ccc(-c2cc3ccc(Nc4ccc5c(c4)OCCO5)nc3s2)cc1 [Example 58]
Staining of aSyn aggregates on PD sections [2]: + | Staining of Aβ plaques on AD sections [3]: ++

Cn1cc(-c2ccc3sc(-c4ccc(N5CC[C@@H](F)C5)nc4)cc3n2)cn1 [Example 51]
Staining of aSyn aggregates on PD sections [2]: ++ | Staining of Aβ plaques on AD sections [3]: +

O=C1COCCN1c1ccc2nc(-c3ccc(N4CCC[C@@H](F)C4)nc3)sc2c1 [Example 126]
Staining of aSyn aggregates on PD sections [2]: ++ | Staining of Aβ plaques on AD sections [3]: ++

Cn1cc(-c2ccc3sc(-c4ccc(N5CCCC5)nc4)nc3c2)cn1 [Example 20]
Staining of aSyn aggregates on PD sections [2]: + | Staining of Aβ plaques on AD sections [3]: −

Fc1ncccc1-c1cc2ccc(-c3ccc(N4CCCC4)nc3)nc2s1 [Example 34]
Staining of aSyn aggregates on PD sections [2]: ++ | Staining of Aβ plaques on AD sections [3]: +++

CNc1ccc(-c2cc3ccc(-c4ccc(OCCF)cc4)nc3s2)cc1 [Example 10]
Staining of aSyn aggregates on PD sections [2]: + | Staining of Aβ plaques on AD sections [3]: +++

CN1CCN(c2ccc3nc(-c4ccc(N5CC[C@@H](F)C5)nc4)sc3c2)C(=O)C1 [Example 70]
Staining of aSyn aggregates on PD sections [2]: + | Staining of Aβ plaques on AD sections [3]: +

COc1ccc(/C=C/c2ccc3cc(-c4cccnc4)sc3n2)cc1 [Example 15]
Staining of aSyn aggregates on PD sections [2]: +++ | Staining of Aβ plaques on AD sections [3]: +++

c1cncc(-c2cc3ncc(-c4ccc(N5CCCC5)nc4)cc3s2)c1 [Example 18]
Staining of aSyn aggregates on PD sections [2]: +++ | Staining of Aβ plaques on AD sections [3]: +++

F[C@@H]1CCN(c2ccc(-c3ccc4cc(-c5cccnc5)sc4n3)cn2)C1 [Example 45]
Staining of aSyn aggregates on PD sections [2]: + | Staining of Aβ plaques on AD sections [3]: ++

OCCOC1CCN(c2ccc3cc(-c4cccnc4)sc3n2)CC1 [Example 49]
Staining of aSyn aggregates on PD sections [2]: ++ | Staining of Aβ plaques on AD sections [3]: ++

COc1ccc(C#Cc2ccc3cc(-c4cccnc4)sc3n2)cc1 [Example 77]
Staining of aSyn aggregates on PD sections [2]: ++ | Staining of Aβ plaques on AD sections [3]: ++

O=C1COCCN1c1ccc2nc(-c3ccc(N4CC[C@H](F)C4)nc3)sc2c1 [Example 73]
Staining of aSyn aggregates on PD sections [2]: ++ | Staining of Aβ plaques on AD sections [3]: +

c1cncc(-c2ccc3nc(-c4ccc(N5CCCC5)nc4)sc3n2)c1 [Example 38]
Staining of aSyn aggregates on PD sections [2]: +++ | Staining of Aβ plaques on AD sections [3]: +++

c1n[nH]cc1-c1cc2nc(-c3ccc(N4CCCC4)nc3)sc2cn1 [Example 25]
Staining of aSyn aggregates on PD sections [2]: ++ | Staining of Aβ plaques on AD sections [3]: +
